Test results: US20070128217A1 (priority 2003, published 2007)

Columns and labels:
[1] = system: control sera (pooled serum of ten healthy LUMC hospital workers; commercial negative donor pooled serum from the Dutch bloodbank); format: binding, human; parameters: Binding of Control serum LUMC to linear peptides / Binding of Control serum Blood-bank to linear peptides / Binding of Control serum LUMC to looped peptides / Binding of Control Serum Blood-Bank to Looped peptides / Binding of Control serum LUMC to linear peptides of the protein M of SARS-CoV Urbani / Binding of Control serum Blood-bank to linear peptides of the protein M of SARS-CoV Urbani / Binding of Control serum LUMC to looped peptides of the protein M of SARS-CoV Urbani / Binding of Control Serum Blood-Bank to Looped peptides of the protein M of SARS-CoV Urbani: unit not given here
[2] = system: antibodies in sera from SARS patients (sera 1a, 1b, 2, 6, 37, 62, London, SARS-yellow, SARS-green); format: binding, human; parameters: Binding of serum 6 to linear peptides of protein X1 of SARS-CoV Urbani / Binding of serum 37 to linear peptides of protein X1 of SARS-CoV Urbani / Binding of serum 6 to looped/cyclic peptide (PEPSCAN-ELISA) / Binding of serum 37 to looped/cyclic peptide (PEPSCAN-ELISA) / Binding of serum 37 to looped/cyclic peptides of protein X1 of SARS-CoV Urbani / Binding of serum 6 to linear peptides of protein X2 / Binding of serum 37 to linear peptides of protein X2 / Binding of serum 37 to looped/cyclic peptides of protein X2 of SARS-CoV Urbani / Binding of serum 6 to linear peptides of protein M of SARS-CoV Urbani / Binding of serum 37 to linear peptides of protein M of SARS-CoV Urbani / Binding of serum 6 to looped/cyclic peptides of protein M of SARS-CoV Urbani / Binding of serum 37 to looped/cyclic peptides of protein M of SARS-CoV Urbani / Binding of serum 6 to linear peptides of protein X3 of SARS-CoV Urbani / Binding of serum 37 to linear peptides of protein X3 of SARS-CoV Urbani / Binding of serum 37 to looped/cyclic peptides of protein X3 of SARS-CoV Urbani / Binding of serum 6 to linear peptides of protein X4 of SARS-CoV Urbani / Binding of serum 37 to linear peptides of protein X4 of SARS-CoV Urbani / Binding of serum 37 to looped/cyclic peptides of protein X4 of SARS-CoV Urbani / Binding of serum 6 to linear peptides of protein X5 of SARS-CoV Urbani / Binding of serum 37 to linear peptides of protein X5 of SARS-CoV Urbani / Binding of serum 37 to looped/cyclic peptides of protein X5 of SARS-CoV Urbani / Binding of serum 6 to linear peptides of protein N of SARS-CoV Urbani / Binding of serum 37 to linear peptides of protein N of SARS-CoV Urbani / Binding of serum 6 to linear peptide (PEPSCAN-ELISA) / Binding of serum 1a to looped/cyclic peptides of protein N of SARS-CoV Urbani / Binding of serum 1b to looped/cyclic peptides of protein N of SARS-CoV Urbani / Binding of serum 2 to looped/cyclic peptides of protein N of SARS-CoV Urbani / Binding of serum 6 to looped/cyclic peptides of protein N of SARS-CoV Urbani / Binding of serum 37 to looped/cyclic peptides of protein N of SARS-CoV Urbani / Binding of serum 62 to looped/cyclic peptides of protein N of SARS-CoV Urbani / Binding of serum London to looped/cyclic peptides of protein N of SARS-CoV Urbani / Binding of serum SARS-green to looped/cyclic peptides of protein N of SARS-CoV Urbani: unit not given here
[3] = system: rabbit serum obtained by immunizing a rabbit with the SARS-CoV strain Frankfurt 1; format: binding; parameters: Binding of a rabbit serum to linear peptides / Binding of a rabbit serum to looped peptides / Rabbit serum linear peptides / Rabbit serum looped peptides / Binding of a rabbit serum to linear peptides of protein N of SARS-CoV Urbani (Rabbit serum linear peptides) / Binding of a rabbit serum to looped/cyclic peptides of protein N of SARS-CoV Urbani (Rabbit serum looped peptides): unit not given here
[4] = system: recombinant human anti-SARS-CoV antibody 03-018; format: binding; parameters: Binding of antibody 03-018 to linear peptides of the N protein of SARS-CoV Urbani / Binding of antibody 03-018 to looped/cyclic peptides of the N protein of SARS-CoV Urbani: unit not given here

## TQGNFGDQDLIRQGT
[1]
  Binding of Control Serum Blood-Bank to Looped peptides: 0.8
  Binding of Control serum Blood-bank to linear peptides: 0.8
  Binding of Control serum LUMC to linear peptides: 0.9
  Binding of Control serum LUMC to looped peptides: 0.8
[2]
  Binding of serum 1a to linear peptide (PEPSCAN-ELISA): 0.3
  Binding of serum 1a to looped/cyclic peptides of protein N of SARS-CoV Urbani: 0.4
  Binding of serum 1b to linear peptide (PEPSCAN-ELISA): 0.2
  Binding of serum 1b to looped/cyclic peptides of protein N of SARS-CoV Urbani: 0.3
  Binding of serum 2 to linear peptide (PEPSCAN-ELISA): 0.2
  Binding of serum 2 to looped/cyclic peptides of protein N of SARS-CoV Urbani: 0.4
  Binding of serum 6 to linear peptide (PEPSCAN-ELISA): 0.2
  Binding of serum 6 to looped/cyclic peptides of protein N of SARS-CoV Urbani: 0.2
  Binding of serum 37 to linear peptide (PEPSCAN-ELISA): 0.9
  Binding of serum 37 to looped/cyclic peptides of protein N of SARS-CoV Urbani: 0.7
  Binding of serum 62 to linear peptide (PEPSCAN-ELISA): 0.8
  Binding of serum 62 to looped/cyclic peptides of protein N of SARS-CoV Urbani: 0.7
  Binding of serum London to linear peptide (PEPSCAN-ELISA): 0.6
  Binding of serum London to looped/cyclic peptides of protein N of SARS-CoV Urbani: 0.5
  Binding of serum SARS-green to linear peptide (PEPSCAN-ELISA): 0.6
  Binding of serum SARS-green to looped/cyclic peptides of protein N of SARS-CoV Urbani: 0.5
  Binding of serum SARS-yellow to linear peptide (PEPSCAN-ELISA): 0.6
  Binding of serum SARS-yellow to looped/cyclic peptides of protein N of SARS-CoV Urbani: 0.6
[3]
  Binding of a rabbit serum to linear peptides of protein N of SARS-CoV Urbani (Rabbit serum linear peptides): 0.2
  Binding of a rabbit serum to looped/cyclic peptides of protein N of SARS-CoV Urbani (Rabbit serum looped peptides): 0.6
[4]
  Binding of antibody 03-018 to linear peptides of the N protein of SARS-CoV Urbani: 0.1
  Binding of antibody 03-018 to looped/cyclic peptides of the N protein of SARS-CoV Urbani: 0.2

## TQHGKEELRFPRGQG
[1]
  Binding of Control Serum Blood-Bank to Looped peptides: 0.6
  Binding of Control serum Blood-bank to linear peptides: 0.9
  Binding of Control serum LUMC to linear peptides: 0.8
  Binding of Control serum LUMC to looped peptides: 0.6
[2]
  Binding of serum 1a to linear peptides of protein N of SARS-CoV Urbani: 0.3
  Binding of serum 1a to looped/cyclic peptides of protein N of SARS-CoV Urbani: 0.3
  Binding of serum 1b to linear peptides of protein N of SARS-CoV Urbani: 0.2
  Binding of serum 1b to looped/cyclic peptides of protein N of SARS-CoV Urbani: 0.2
  Binding of serum 2 to linear peptides of protein N of SARS-CoV Urbani: 0.3
  Binding of serum 2 to looped/cyclic peptides of protein N of SARS-CoV Urbani: 0.3
  Binding of serum 6 to linear peptides of protein N of SARS-CoV Urbani: 0.2
  Binding of serum 6 to looped/cyclic peptides of protein N of SARS-CoV Urbani: 0.2
  Binding of serum 37 to linear peptides of protein N of SARS-CoV Urbani: 0.7
  Binding of serum 37 to looped/cyclic peptides of protein N of SARS-CoV Urbani: 0.5
  Binding of serum 62 to linear peptides of protein N of SARS-CoV Urbani: 0.8
  Binding of serum 62 to looped/cyclic peptides of protein N of SARS-CoV Urbani: 0.3
  Binding of serum London to linear peptides of protein N of SARS-CoV Urbani: 0.5
  Binding of serum London to looped/cyclic peptides of protein N of SARS-CoV Urbani: 0.4
  Binding of serum SARS-green to linear peptides of protein N of SARS-CoV Urbani: 0.4
  Binding of serum SARS-green to looped/cyclic peptides of protein N of SARS-CoV Urbani: 0.2
  Binding of serum SARS-yellow to linear peptides of protein N of SARS-CoV Urbani: 0.6
  Binding of serum SARS-yellow to looped/cyclic peptides of protein N of SARS-CoV Urbani: 0.4
[3]
  Binding of a rabbit serum to linear peptides of protein N of SARS-CoV Urbani (Rabbit serum linear peptides): 0.1
  Binding of a rabbit serum to looped/cyclic peptides of protein N of SARS-CoV Urbani (Rabbit serum looped peptides): 0.3
[4]
  Binding of antibody 03-018 to linear peptides of the N protein of SARS-CoV Urbani: 0.1
  Binding of antibody 03-018 to looped/cyclic peptides of the N protein of SARS-CoV Urbani: 0.2

## TRNPNNNAATVLQLP
[1]
  Binding of Control Serum Blood-Bank to Looped peptides: 0.8
  Binding of Control serum Blood-bank to linear peptides: 0.7
  Binding of Control serum LUMC to linear peptides: 0.8
  Binding of Control serum LUMC to looped peptides: 0.7
[2]
  Binding of serum 1a to linear peptides of protein N of SARS-CoV Urbani: 0.3
  Binding of serum 1a to looped/cyclic peptides of protein N of SARS-CoV Urbani: 0.4
  Binding of serum 1b to linear peptides of protein N of SARS-CoV Urbani: 0.1
  Binding of serum 1b to looped/cyclic peptides of protein N of SARS-CoV Urbani: 0.3
  Binding of serum 2 to linear peptides of protein N of SARS-CoV Urbani: 0.3
  Binding of serum 2 to looped/cyclic peptides of protein N of SARS-CoV Urbani: 0.7
  Binding of serum 6 to linear peptides of protein N of SARS-CoV Urbani: 0.2
  Binding of serum 6 to looped/cyclic peptides of protein N of SARS-CoV Urbani: 0.3
  Binding of serum 37 to linear peptides of protein N of SARS-CoV Urbani: 0.6
  Binding of serum 37 to looped/cyclic peptides of protein N of SARS-CoV Urbani: 0.6
  Binding of serum 62 to linear peptides of protein N of SARS-CoV Urbani: 0.7
  Binding of serum 62 to looped/cyclic peptides of protein N of SARS-CoV Urbani: 0.5
  Binding of serum London to linear peptides of protein N of SARS-CoV Urbani: 0.5
  Binding of serum London to looped/cyclic peptides of protein N of SARS-CoV Urbani: 0.5
  Binding of serum SARS-green to linear peptides of protein N of SARS-CoV Urbani: 0.3
  Binding of serum SARS-green to looped/cyclic peptides of protein N of SARS-CoV Urbani: 0.8
  Binding of serum SARS-yellow to linear peptides of protein N of SARS-CoV Urbani: 0.7
  Binding of serum SARS-yellow to looped/cyclic peptides of protein N of SARS-CoV Urbani: 0.5
[3]
  Binding of a rabbit serum to linear peptides of protein N of SARS-CoV Urbani (Rabbit serum linear peptides): 0.1
  Binding of a rabbit serum to looped/cyclic peptides of protein N of SARS-CoV Urbani (Rabbit serum looped peptides): 0.5
[4]
  Binding of antibody 03-018 to linear peptides of the N protein of SARS-CoV Urbani: 0.1
  Binding of antibody 03-018 to looped/cyclic peptides of the N protein of SARS-CoV Urbani: 0.2
